Results: patent US7148232B2, “Oxazolo, thiazolo and selenazolo [4,5-c]-quinolin-4-amines and analogs thereof” (3M Innovative Properties Company, priority 1998, dated 2006)
Where a name gives a salt, the structure may show the parent alone.

Legend:
interferon (α) = assay: Interferon (α) induction in human cells (in vitro human blood cell system, interferon by bioassay); format: cell-based; conditions: human PBM's, 48 hours
Protocol: An in vitro human blood cell system was used to assess interferon induction by compounds of the invention. Activity is based on the measurement of interferon secreted into culture media. Interferon is measured by bioassay.
Whole blood is collected by venipuncture into EDTA vacutainer tubes. Peripheral blood mononuclear cells (PBM's) are separated from whole blood by using either LeucoPREP™ Brand Cell Separation Tubes (available from Becton Dickinson) or Ficoll-Paque® solution (available from Pharmacia LKB Biotechnology Inc, Piscataway, N.J.). […] 200 μL portions of PBM suspension are added to 96 well (flat bottom) sterile tissue culture plates (Becton Dickinson Labware, Lincoln Park, N.J.).
The compounds are solubilized in ethanol, dimethyl sulfoxide or tissue culture water then diluted with tissue culture water, 0.01N sodium hydroxide or 0.01N hydrochloric acid (The choice of solvent will depend on the chemical characteristics of the compound being tested.). Ethanol or DMSO concentration should not exceed a final concentration of 1% for addition to the culture wells. Compounds are initially tested in a concentration range of from about 0.1 μg/mL to about 5 μg/mL. Compounds which show induction at a concentration of 0.5 μg/mL are then tested in a wider concentration range.
The solution of test compound is added in a volume (less than or equal to 50 μL) to the wells containing 200 μL of diluted whole blood or of PBM's in media. Solvent and/or media is added to control wells (wells with no test compound) and as needed to adjust the final volume of each well to 250 μL. The plates are covered with plastic lids, vortexed gently and then incubated for 48 hours at 37° C. with a 5% carbon dioxide atmosphere.
Following incubation, the plates are covered with parafilm and then centrifuged at 1000 rpm for 10 to 15 minutes at 4° C. in a Damon IEC Model CRU-5000 centrifuge. Media (about 200 μL) is removed from 4 to 8 wells and pooled into 2 mL sterile freezing vials. Samples are maintained at −70° C. until analysis.
Interferon is determined by bioassay using A549 human lung carcinoma cells challenged with encephalomyocarditis. The details of the bioassay method have been described by G. L. Brennan and L. H. Kronenberg in “Automated Bioassay of Interferons in Micro-test Plates”, Biotechniques, June/Jul. […] The incubated cells are infected with an inoculum of encephalomyocarditis virus. The infected cells are incubated for an additional period at 37° C. before quantifying for viral cytopathic effect. The viral cytopathic effect is quantified by staining followed by spectrophotometric absorbance measurements. Results are expressed as alpha reference units/mL based on the value obtained for NIH HU IF-L standard.
Compounds of the invention were tested for their ability to induce interferon in human cells using the test method described above.

Row | Compound | melting point [°C] | Interferon (α) Induction in Human Cells (interferon (α); Dose Concentration 0.01 μg/mL) | Interferon (α) Induction in Human Cells (interferon (α); Dose Concentration 0.05 μg/mL) | Interferon (α) Induction in Human Cells (interferon (α); Dose Concentration 0.10 μg/mL) | Interferon (α) Induction in Human Cells (interferon (α); Dose Concentration 0.50 μg/mL) | Interferon (α) Induction in Human Cells (interferon (α); Dose Concentration 1.0 μg/mL) | Interferon (α) Induction in Human Cells (interferon (α); Dose Concentration 5.0 μg/mL) | Interferon (α) Induction in Human Cells (interferon (α); Dose Concentration 10.0 μg/mL) | Interferon (α) Induction in Human Cells (interferon (α); Dose Concentration 25.0 μg/mL) | Interferon (α) Induction in Human Cells (interferon (α); Dose Concentration 50.0 μg/mL)
1 | CCOCc1nc2c(N)nc3ccccc3c2s1 [Example 28, 2-(Ethoxymethyl)thiazolo[4,5-c]quinoline-4-amine] | 149 to 151 | − | − | − | + | + | + |  |  | 
2 | CC(C)(Cc1nc2c(N)nc3ccccc3c2s1)OC(N)=O [Example 26, 2-(4-Aminothiazolo[4,5-c]quinolin-2-yl)-1,1-dimethylethyl Carbamate] | 222 to 223 | − | − | − | − | − | + | + | + | +
3 | CCCc1nc2c(N)nc3ccc(C)cc3c2s1 [Example 36, 8-Methyl-2-propylthiazolo[4,5-c]quinolin-4-amine] | 147 to 149 | − | − | − | − | + | + |  |  | 
4 | Nc1nc2ccccc2c2sc(CO)nc12 [Example 37, (4-Aminothiazolo[4,5-c]quinolin-2-yl)-methanol] | 247 to 249 | − | − | − | − | − | − |  |  | 
5 | CCCc1nc2c(N)nc3ccccc3c2o1 [Example 43, 2-Propyloxazolo[4,5-c]quinolin-4-amine] | 159 to 160 | − | + | + | + | + | + |  |  | 
6 | CC(C)Cc1nc2c(N)nc3ccccc3c2s1 [Example 32, 2-(2-Methylpropyl)thiazolo[4,5-c]quinolin-4-amine] | 123 to 125 | − | − | ± | + | + | + |  |  | 
7 | Cc1nc2c(N)nc3ccccc3c2s1.Cl [Example 4, 2-Methylthiazolo[4,5-c]quinolin-4-amine Hydrochloride] | 323 to 325 | − | − | − | + | + | + |  |  | 
8 | Cl.Nc1nc2ccccc2c2scnc12.O (hydrate or solvate) [Example 5, Thiazolo[4,5-c]quinolin-4-amine Hydrochloride Hydrate] | 284 to 285 |  |  |  |  |  |  |  |  | 
9 | [O-][n+]1cc2nc(Cc3ccccc3)sc2c2ccccc21 [Example 33, 2-Benzylthiazolo[4,5-c]quinoline-5N-oxide] | 185 to 186 |  |  |  |  |  |  |  |  | 
10 | CCc1nc2c[n+]([O-])c3ccccc3c2s1 [Example 7, 2-Ethylthiazolo[4,5-c]quinoline-5N-oxide] | 128 |  |  |  |  |  |  |  |  | 
11 | CCCc1nc2c(N)nccc2s1 (as salt: trifluoroacetate) [Example 62, 2-Propylpyrido[3,4-d][1,3]thiazol-4-amine Trifluoroacetate] | 160 to 162 |  |  |  |  |  |  |  |  | 

The next lines start with results.

Row | melting point [°C] | Compound | Interferon (α) Induction in Human Cells (interferon (α); Dose Concentration 0.01 μg/mL) | Interferon (α) Induction in Human Cells (interferon (α); Dose Concentration 0.05 μg/mL) | Interferon (α) Induction in Human Cells (interferon (α); Dose Concentration 0.10 μg/mL) | Interferon (α) Induction in Human Cells (interferon (α); Dose Concentration 0.50 μg/mL) | Interferon (α) Induction in Human Cells (interferon (α); Dose Concentration 1.0 μg/mL) | Interferon (α) Induction in Human Cells (interferon (α); Dose Concentration 5.0 μg/mL) | Interferon (α) Induction in Human Cells (interferon (α); Dose Concentration 10.0 μg/mL) | Interferon (α) Induction in Human Cells (interferon (α); Dose Concentration 25.0 μg/mL) | Interferon (α) Induction in Human Cells (interferon (α); Dose Concentration 50.0 μg/mL)
12 | 259 to 261 | Nc1nc2ccccc2c2sc(N3CCCC3)nc12 [Example 54, 2-(1-Pyrrolidino)thiazolo[4,5-c]quinolin-4-amine] | − | − | − | − | − | − | − | + | +
13 | 192.5 to 193.5 | CCCc1nc2c(N)nc3cc(F)ccc3c2s1 [Example 49, 7-Fluoro-2-propylthiazolo[4,5-c]quinolin-4-amine] | − | − | − | + | + | + |  |  | 
14 | 177 to 180 | CCCc1nc2c(N)nc3ccc(Br)cc3c2s1 [Example 44, 8-Bromo-2-propylthiazolo[4,5-c]quinolin-4-amine] |  |  | − | − | − | + | + | + | +
15 | 187 to 188 | CCCCc1nc2c(N)nc3cc(C)ccc3c2o1 [Example 46, 2-Butyl-7-methyloxazolo[4,5-c]quinolin-4-amine] | − | + | + | + | + | + |  |  | 
16 | 184 to 187 | CCCc1nc2c(N)nc3cc(F)ccc3c2o1 [Example 48, 7-Fluoro-2-propyloxazolo[4,5-c]quinolin-4-amine] | − | − | − | + | + | + |  |  | 
17 | 241 to 242 | [O-][n+]1cc2nc(N3CCOCC3)sc2c2ccccc21 [Example 52, 2-(4-Morpholino)thiazolo[4,5-c]quinoline-5N-oxide] |  |  |  |  |  |  |  |  | 
18 | 139 to 142 | CCCc1nc2c[n+]([O-])c3cccnc3c2s1 [Example 59, 2-Propylthiazolo[4,5-c][1,5]naphthyridine-5N-oxide] |  |  |  |  |  |  |  |  | 
